Measurements: patent US20240360114A1 (SIRONAX LTD., priority 2021, published 2024)
pEC50: −log10 of the molar value.

System: HT-1080 cells
Experiment: HT-1080 cell viability assay (ferroptosis induced by RSL3, Cell Titer-Glo)
Type: cell-based
Conditions: Homo sapiens, ferroptosis inducer RSL3, 20 hours, ferroptosis inhibitory activity
How it was run: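 Cells seeded overnight, then co-treated with RSL3 and compound (3-fold, 10-point dilution, top 1.1 μM) for 20 hours. Viability by CellTiter-Glo luminescence, normalized to untreated controls; EC50 from sigmoidal non-linear regression.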

SMILES	pEC50 (HT-1080, 20 h, Table 2)	also measured
CC1(C)CCC(c2ccc(NC3CCC(C(C)(C)N)CC3)cc2)CC1 (stereo not shown) [Compound 226, N-(4-(2-aminopropan-2-yl)cyclohexyl)-4-(4,4-dimethylcyclohexyl)aniline]		pEC50 (Table 2): 7.00 to 10.00
Cc1nc(N2C[C@@H](C)N(CC(F)(F)F)[C@@H](C)C2)ccc1NC1CCC(N)C1 (stereo partly drawn) [Compound 541, N1-(6-((3R,5S)-3,5-dimethyl-4-(2,2,2-trifluoroethyl)piperazin-1-yl)-2-methylpyridin-3-yl)cyclopentane-1,3-diamine]	7.00 to 10.00	
Cc1nc(N2CCOC(C)C2)ccc1NC1C2CC3CC1CC(N)(C3)C2 (stereo not shown) [Compound 518, N4-(2-methyl-6-(2-methylmorpholino)pyridin-3-yl)adamantane-1,4-diamine]	7.00 to 10.00	
Cc1nc(N2C[C@@H](C)O[C@@H](C)C2)ccc1NC12CCC(N)(CC1)C2 [Compound 627]		pEC50 (HT-1080, 20 h, Table 3): 6.00 to 7.00
CC[C@@H]1CN(c2ccc(NC3CC4(CC(N)C4)C3)c(C)n2)C[C@H](C)O1 (stereo partly drawn) [Compound 546, N2-(6-((2R,6S)-2-ethyl-6-methylmorpholino)-2-methylpyridin-3-yl)spiro[3.3]heptane-2,6-diamine]	7.00 to 10.00	

Continued, in another order:

pEC50 (HT-1080, 20 h, Table 2)	SMILES	also measured
7.00 to 10.00	N[C@H]1CC[C@H](CNc2ccc3c(c2)CCCC3)CC1 [Compound 310, N-(((1r,4r)-4-aminocyclohexyl)methyl)-5,6,7,8-tetrahydronaphthalen-2-amine]	
6.00 to 7.00	CC1CN(c2ccc(NC3CCC(N)CC3)cc2)CC(C)O1 (stereo not shown) [Compound 450, N1-(4-(2,6-dimethylmorpholino)phenyl)cyclohexane-1,4-diamine]	
